Measured values taken from PubChem BioAssay (NCI).
“And” between values parts separate entries of the source, which are not always exact repeats. Identical values can stand only once.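 A five-concentration, 48-hour dose response in 96-well plates underlies each endpoint, interpolated linearly between surrounding concentrations. GI50 is the concentration that inhibits growth by half. The concentration for full growth arrest is given as TGI.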

What was measured:
Assay in all cases: inhibition of tumour cell growth, NCI panel, 48 h
OVCAR-4 ovarian = system: OVCAR-4 ovarian
HOP-92 NSCLC = system: HOP-92 NSCLC
TK-10 renal = system: TK-10 renal
MOLT-4 leukemia = system: MOLT-4 leukemia
NCI-H23 lung = system: NCI-H23 lung
SK-MEL-2 melanoma = system: SK-MEL-2 melanoma
SF-539 CNS = system: SF-539 CNS
OVCAR-3 ovarian = system: OVCAR-3 ovarian
LOX IMVI melanoma = system: LOX IMVI melanoma
HCT-15 colon = system: HCT-15 colon
HL-60(TB) leukemia = system: HL-60(TB) leukemia

| SMILES | TGI (OVCAR-4 ovarian) | TGI (HOP-92 NSCLC) | TGI (TK-10 renal) | TGI (MOLT-4 leukemia) | TGI (NCI-H23 lung) | TGI (SK-MEL-2 melanoma) | TGI (SF-539 CNS) | TGI (OVCAR-3 ovarian) | TGI (LOX IMVI melanoma) | TGI (HCT-15 colon) | TGI (HL-60(TB) leukemia) | GI50 (OVCAR-4 ovarian) | GI50 (HOP-92 NSCLC) | GI50 (TK-10 renal) | GI50 (MOLT-4 leukemia) | GI50 (NCI-H23 lung) | GI50 (SK-MEL-2 melanoma) | GI50 (HCT-15 colon) |
| --- | --- | --- | --- | --- | --- | --- | --- | --- | --- | --- | --- | --- | --- | --- | --- | --- | --- | --- |
| CCOC(=O)n1cncc1CC(NC(=O)Cc1c(C(=O)C=C(C)C)[nH]c2ccccc12)C(=O)OC (stereo unspecified) | 37.9 µM | 26.4 µM | 34.2 µM | 47.3 µM | 68.2 µM | 34.2 µM | 46.2 µM | 38.9 µM | 35.6 µM | 59.6 µM | 44 µM |  |  |  |  |  |  |  |
| O=C1CCCC2=C1CC1=C(CCCC1=O)N2c1cccc2ccccc12 | > 100 µM | > 100 µM | > 100 µM | > 100 µM | > 100 µM |  | > 100 µM | > 100 µM | > 100 µM | > 100 µM | > 100 µM |  |  |  |  |  |  |  |
| CC(C)/C=N\n1c(N)c(C#N)c(C#N)c1C(C)C | 84.9 µM | 38.3 µM | > 100 µM | 63.4 µM | 75.4 µM | 58 µM | 52.5 µM | 62.1 µM | 97.8 µM | > 100 µM | > 100 µM |  |  |  |  |  |  |  |
| C[Si](C)(C)OC1c2[nH]c3ccccc3c2CN2C(=O)CCC12 (stereo unspecified) | > 100 µM | > 100 µM | > 100 µM | > 100 µM |  | > 100 µM | > 100 µM | > 100 µM | > 100 µM | > 100 µM | > 100 µM |  |  |  |  |  |  |  |
| Cn1c2nc3ccccc3c-2cc2ccccc21 | 19 µM and 26.2 µM | 30.7 µM and 46.7 µM | 70.3 µM and > 100 µM | 7.15 µM and 9.9 µM | 11.5 µM and 23.2 µM | 17.2 µM and 24 µM | 16 µM and 17.5 µM | > 46.2 µM and 28 µM | > 31.8 µM and 22.5 µM | 7.3 µM and 23.4 µM | 8.22 µM and 17 µM | 3.81 µM and 10.7 µM | 3.06 µM and 11.7 µM | 7.63 µM and 31 µM | 1.38 µM and 2.97 µM | 3.35 µM and 10.6 µM | 3.94 µM and 11.1 µM | 1.14 µM and 4.06 µM |
| CC1=C(OC2OC(CO)C(O)C(O)C2O)C(=O)C[C@H]2C1=CC[C@@H]1[C@@]2(C)C(=O)C[C@]2(C)[C@@H]([C@@](C)(O)C(=O)CCC(C)(C)O)[C@H](O)C[C@@]12C (stereo partly specified) | > 100 µM | > 100 µM | > 100 µM | > 100 µM | > 100 µM | > 100 µM | > 100 µM | > 100 µM | > 100 µM | > 100 µM | > 100 µM |  |  |  |  |  |  |  |
| O=C1N=C(c2ccccc2)O/C1=C\c1ccccc1 | > 100 µM | > 100 µM | > 100 µM | > 100 µM | > 100 µM | > 100 µM | > 100 µM | > 100 µM | > 100 µM | > 100 µM | > 100 µM |  |  |  |  |  |  |  |
| CC1C[C@]2(C)C(=S)Nc3ccccc3[C@@H]2Nc2ccccc21 (stereo partly specified) | 38.6 µM | 25.2 µM | 39.5 µM | 56.1 µM | 33.9 µM | 32 µM | 34.2 µM | 32.1 µM | 28.5 µM | 50.8 µM | 77 µM |  |  |  |  |  |  |  |
| COc1ccc(OC)c2nc3c(C(=O)NCCN(C)C)cccc3nc12 | 11.1 µM | 50.2 µM | 46.8 µM | 17.6 µM | 25.5 µM | 25.9 µM | 20 µM | 42.3 µM | 4.91 µM | > 51.5 µM | 16.5 µM |  |  |  |  |  |  |  |
| CC1(C)OCC(C2OC(N3O[C@H](CI)C[C@@H]3c3ccccc3)C3OC(C)(C)OC23)O1 (stereo partly specified) | > 100 µM | > 100 µM | > 100 µM |  | > 100 µM | > 100 µM | > 100 µM | > 100 µM | > 100 µM | > 100 µM | > 100 µM |  |  |  |  |  |  |  |
| O=C1/C(=C\c2cccc(Oc3ccccc3)c2)SC(c2ccccc2)N1c1ccc(Cl)cc1 (stereo unspecified) | > 100 µM | > 100 µM | > 100 µM | > 63.6 µM | 98.7 µM | > 100 µM | 52.6 µM | > 100 µM | > 100 µM | > 100 µM | > 100 µM |  |  |  |  |  |  |  |
| CCOC(=O)c1nc2ccc(C(F)(F)F)cc2nc1Oc1ccc(F)cc1 | > 100 µM | > 100 µM | > 100 µM | > 100 µM | > 100 µM | > 100 µM | > 100 µM |  | > 100 µM | > 100 µM | > 100 µM |  |  |  |  |  |  |  |
| COc1cc(-c2coc3c(OC)c(OC4OC(CO)C(O)C(O)C4O)c(OC)cc3c2=O)cc(OC)c1C (stereo unspecified) | 63.2 µM | 38.4 µM | > 70.3 µM | > 36 µM | 14.1 µM | 41.1 µM | > 29 µM | > 100 µM | > 31.2 µM | 19.6 µM | > 100 µM |  |  |  |  |  |  |  |
| CC(=O)CCC[C@@H](C)[C@@H]1O[C@H]([C@@]2(C)CCC(=O)O2)C[C@H]2C(CSc3ccccc3)C(=O)O[C@@H]12 (stereo partly specified) | 31.8 µM | 39.1 µM | 25.6 µM | 16 µM | 49.3 µM | 40.6 µM | 36.9 µM | 27.8 µM | 38.2 µM | 47.3 µM | 12.8 µM |  |  |  |  |  |  |  |
| Cc1cc2oc(=O)[nH]c(=S)c2c(C)c1C | > 100 µM | > 100 µM | > 100 µM | > 100 µM | > 100 µM | > 100 µM | > 100 µM | > 100 µM | > 100 µM | > 100 µM | > 100 µM |  |  |  |  |  |  |  |
| O=C1CC2(CCC(O)(c3ccc(Cl)cc3)C(C(=O)c3ccc(Cl)cc3)C2)C(=O)c2ccccc2N1 (stereo unspecified) | > 100 µM | 8.31 µM | 39.2 µM | 8.56 µM | 53.8 µM | > 100 µM | 11.2 µM | > 100 µM | > 86.8 µM | > 100 µM | > 31.6 µM |  |  |  |  |  |  |  |
| O=c1c2cccnc2nc2ccc3c[nH][nH]c3c12 | > 10 µM | > 10 µM | > 10 µM | > 10 µM | > 10 µM | > 10 µM | > 10 µM | > 10 µM | > 10 µM | > 10 µM | > 10 µM |  |  |  |  |  |  |  |
| [N-]=[N+]=Nc1ccc2c(c1)Sc1ccccc1N2CCCCCl | > 100 µM | > 100 µM | > 100 µM | > 100 µM | > 100 µM | 76.9 µM | > 100 µM | > 100 µM | > 100 µM | > 100 µM | 64.3 µM |  |  |  |  |  |  |  |
